The record followed here is ChEMBL document CHEMBL1129822, “Thermal atropisomerism of fully functionalized vancomycin CD, DE, and CDE ring systems” (Bioorg Med Chem Lett, 1997).

Holding throughout (format): ADME
Data set [1] is described as follows: Half-life at 125 degrees C in DMSO.
Data set [2] can be described thus: Half-life at 140 degrees C in DMSO.
The nature of data set [3]: The equilibrium constant at 125 degrees C in DMSO.
A short description of data set [4]: The equilibrium constant at 140 degrees C in DMSO.
A short description of data set [5]: Half-life at 140 degrees C in ortho dichloro benzene. Particulars: ortho-dichlorobenzene.
Data set [6] in a line: Half-life at 155 degrees C in DMSO.
A short description of data set [7]: The equilibrium constant at 140 in ortho dichloro benzene.
Data set [8] can be described thus: The equilibrium constant at 155 degrees C in DMSO.

What is called half-life is the time needed for the level to fall by half in the phase considered. Higher therefore signals slow loss. Regarding `COc1c(O)cc2cc1Oc1ccc(cc1[N+](=O)[O-])[C@@H](O)[C@@H](NC(=O)OC(C)(C)C)C(=O)N[C@@H](CC(N)=O)C(=O)N[C@H]2C(=O)OC(C)(C)C`, the half-life in data set [1] was 16.8 min; in data set [2] it was 5.52 min. For the same compound, the k was 0.88 h⁻¹ in data set [3] and 2.06 h⁻¹ in data set [4].

`COC(=O)[C@H]1NC(=O)[C@@H](c2ccc(OC)c(Br)c2)NC(=O)[C@H](NC(=O)OC(C)(C)C)c2cc(O)c(OC)c(c2)Oc2ccc(cc2[N+](=O)[O-])[C@H]1O[Si](C)(C)C(C)(C)C`: the half-life in data set [2] was 211 min; in data set [5], 586 min; in data set [6], 63.6 min. Besides, the values for the k in data set [4], in data set [7] and in data set [8] were 0.082 h⁻¹, 0.029 h⁻¹ and 0.27 h⁻¹, respectively.

As for `COC(=O)[C@H]1NC(=O)[C@@H](c2ccc(OC)c(Br)c2)NC(=O)[C@H](NC(=O)OC(C)(C)C)c2cc(O)c(OC)c(c2)Oc2ccc(cc2Cl)[C@H]1O[Si](C)(C)C(C)(C)C`, the half-life in data set [2] is 242 min; in data set [5] it was 3180 min. The k in data set [4] was found to be 0.071 h⁻¹; in data set [7] it was 0.0054 h⁻¹.
